The source of these data is PubChem BioAssay (NCI).

Common to all, as to assay: NCI tumour cell line growth inhibition, 48 h
Assay [1] concerns HCT-116 colon.
The subject of assay [2] is MDA-N.
For assay [3], the system named is RPMI-8226 leukemia.
Assay [4] relates to KM20L2 colon.
Assay [5] concerns DMS 273 small cell lung.
Assay [6] has as its system DMS 114 small cell lung.
Assay [7] relates to SNB-78 CNS.
In assay [8] the test system is XF 498 CNS.
In assay [9] the test system is LXFL 529 NSCLC.
Assay [10] relates to DLD-1 colon.
Assay [11] has as its system SR leukemia.
Assay [12] concerns M19-MEL melanoma.
Assay [13] relates to 786-0 renal.
The test system of assay [14] is HOP-18 NSCLC.
The subject of assay [15] is P388/ADR leukemia.
Assay [16] concerns P388 leukemia.
In assay [17] the test system is SN12K1 renal.

“And” between values parts separate entries of the source, which are not always exact repeats. Equal values may be shown once.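 Assay format: 96-well plates, 48-hour exposure. At the TGI there is no net growth.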

Consider `CC(=O)NC(c1nc2cc(C)c(C)cc2[nH]1)c1nc2cc(C)c(C)cc2[nH]1`, for which the TGI turned out to be 53.7 µM in assay [1], 48.6 µM in assay [2] and 46.4 µM in assay [3].
On to `NC(=O)CCC(N=C(N)c1csc(C2OC(CO)C(O)C2O)n1)C(=O)O` (stereo not drawn), for which the TGI in assay [4], in assay [5], in assay [6], in assay [7], in [3] and in [8] was above 100 µM each time. The TGI in [9] and in [10] was above 100 µM each time.
As to `COC1C=COC2(C)Oc3c(C)c(O)c4c(O)c(c(/C=N/N5CCN(N)CC5)c(O)c4c3C2=O)NC(=O)C(C)=CC=CC(C)C(O)C(C)C(O)C(C)C(OC(C)=O)C1C` (stereo not drawn), the TGI was 80.7 µM in assay [1]; above 100 µM in [4]; above 100 µM in [11]; above 100 µM in assay [5]; above 100 µM in assay [12]; above 100 µM in [6]. Further, the TGI in [7] is above 100 µM; in assay [3] it was 88.8 µM; in assay [9], above 100 µM; in [13], above 100 µM; in [10], above 100 µM.
Regarding `O=S(=O)(O)c1ccc(N=Nc2c(O)ccc3cc(Br)ccc23)cc1`, the TGI in assay [1], in [11], in [2], in assay [3] and in assay [13] was above 100 µM each time.
With `COc1cccc(/C=N/[N-]C(N)=O)c1[O-].[Ni+2].[OH3+].c1ccc(-c2ccccn2)nc1`, the TGI in assay [1], in assay [4] and in [3] was above 100 µM each time.
On to `COc1cc(OC)c(/C=C\c2cc(/C=C/c3c(OC)cc(OC)cc3OC)c3ccccc3[n+]2C)c(OC)c1`, for which the TGI in assay [1] was above 28.3 µM; in assay [2] it was 8.19 µM; in assay [13], 7.56 µM.
Consider `S=C1CC(c2ccccc2)Sc2ccccc2N1` (stereo not drawn), for which the TGI in assay [1], in assay [11], in [2] and in [3] was above 100 µM each time.
`[O-][n+]1ccccc1S`: the figures for the TGI in [1], in assay [3] and in assay [13] were 4.5 µM, 6.47 µM and above 100 µM, respectively.
Take `CNC(=O)SCC(N)C(=O)O` (stereo not drawn): the TGI in [1] is above 100 µM; in [4] it was above 100 µM; in assay [14], above 100 µM; in assay [15] it was 58 µM; in assay [5], above 100 µM; in assay [6], above 100 µM. Moreover, the TGI in [7] was above 100 µM; in assay [3], above 100 µM; in [8], above 100 µM; in [16], 39.1 µM; in assay [10] it was above 100 µM; in [17], above 100 µM.
`CCC(=O)c1ccc2[nH]c3c(C)c4c(=O)cc(C)[nH]c4c(C)c3c2c1`: the TGI in assay [1], in [11], in [2] and in assay [13] was above 100 µM each time.
Turning to `OC1CCOc2ccccc21` (stereo not drawn), the TGI in assay [1], in [4], in assay [14], in [11], in assay [5] and in [12] was above 100 µM each time. The TGI in assay [6], in assay [3], in [8], in assay [9] and in assay [10] was above 100 µM each time.
On to `CC(=O)NC(CCC(=O)C=[N+]=N)C(=O)O` (stereo not drawn), for which the TGI in assay [1], in [11], in assay [2], in assay [3] and in assay [13] was above 100 µM in each case.
`CC1(C)Cc2c(C#N)c(N)c3c(c2CO1)C(=O)OC3=O`: the TGI in assay [1], in [4], in [14], in [11], in assay [5] and in assay [12] was above 100 µM in each case. The TGI in assay [6], in [3], in assay [8] and in assay [9] was above 100 µM throughout.
Take `CC1CCC2(C(=O)O)CCC3(C)C(=CCC4C5(C)CCC(O)C(C)(C)C5CCC43C)C2C1C` (stereo not drawn): the TGI in assay [1] is 17.9 µM and > 100 µM; in assay [4] it was 17.5 µM; in [14], 34.4 µM; in [15] it was 17.8 µM; in assay [11], 59.8 µM; in assay [5], 22 µM. Moreover, the TGI in assay [2] was 28.2 µM; in [12] it was 18.9 µM; in assay [6], 21.5 µM; in assay [7] it was 29.3 µM; in assay [3], 24.3 µM and 31.5 µM; in assay [8], 11.7 µM. Moreover, the TGI was 9.48 µM in [16], above 100 µM in assay [13], 17 µM in assay [10] and 12.9 µM in assay [17].
For the compound `C/C=C/C1=CC(=O)C(O)C1O` (stereo not drawn), the TGI is 96 µM in assay [1]; above 80.9 µM in [4]; 27.1 µM in assay [14]; 113 µM in assay [15]; 98.9 µM in assay [5]; 113 µM in assay [12]. Moreover, the TGI in assay [6] was determined as 72.5 µM; in [7], 173 µM; in assay [3], 102 µM; in assay [8], 45.6 µM; in assay [16], 141 µM; in assay [10] it was 122 µM. The same compound gave a TGI in [17] of 84.2 µM.
Turning to `C1=C(c2ccccc2)Nc2nnnn2C1c1ccccc1` (stereo not drawn), the TGI is 22.3 µM in assay [1], 51.3 µM in assay [11], above 100 µM in assay [2] and above 100 µM in [13].
As for `CCOC(=O)c1c(Cl)nc2ccccc2c1N=[N+]=[N-]`, the TGI in assay [1] was 43 µM; in [11] it was above 100 µM; in assay [2], 44.2 µM; in [3], above 100 µM.
For `Cc1[nH]nc(N)c1C(N)=O`, the TGI in assay [4], in assay [5], in assay [6], in assay [7], in [3] and in [8] was above 100 µM in each case. Besides, the TGI in assay [9] and in [10] was above 100 µM in each case.
For `CC1CC[C@@]2(OC1)OC1CC3C4CCC5C[C@@H](OC6OC(CO)C(OC7OC(CO)C(O)C(OC8OC(CO)C(O)C(OC9OC(CO)C(O)C(O)C9O)C8O)C7OC7OC(CO)C(O)C(O)C7O)C(O)C6O)[C@H](O)C[C@]5(C)C4CC[C@]3(C)C1[C@@H]2C` (stereo partly drawn), the TGI in assay [1], in assay [2] and in assay [13] was above 80.5 µM throughout.
On to `CCCC(=O)NC1CCc2cc(OC)c(OC)c(OC)c2-c2ccc(OC)c(=O)cc21` (stereo not drawn), for which the TGI in [1], in [3] and in [13] was above 100 µM in each case.
On to `COC(=O)c1c(O)ccc2c1c1c(n2Cc2ccc(Cl)cc2Cl)C(=O)c2ccccc2C1=O`, for which the TGI in assay [1] was determined as 13.1 µM; in assay [11] it was 12.3 µM; in [2], 29.5 µM; in assay [3], 13.5 µM; in [13] it was 22.9 µM.
